Source: patent US11685723B2, “Antibacterial agents: O-alkyl-deuterated pyronins” (Rutgers, the State University of New Jersey, priority 2018, dated 2023)
pIC50: −log10 of the molar value. In brackets after ≈: the same amount, converted by molar mass. Where two headings read alike, the source gives them in different places.

How the values were obtained:
[1] = Metabolic stability, mouse liver microsomes; assay type: in vitro ADME; conditions: CD-1 mouse liver microsomes 1 mg/ml, 1 mM NADPH, pH 7.4, 37° C.
Procedure: (§1) Test compounds were incubated with mouse liver microsomes (CD-1; male and female pooled; 1 mg/ml) or human liver microsomes (male; 1 mg/ml) in 50 mM potassium phosphate, pH 7.4, and 1 mM NADPH at 37° C. Aliquots were removed at 0, 15, 30, 60, 90 and 120 min, and amounts of test compounds remaining were determined by LC-MS/MS. Half lives (t0.5) were calculated as t0.5=−0.693/k, where k is the slope of the linear regression of the natural logarithms of percentages of test compounds remaining vs. time.

[2] = Metabolic stability, human liver microsomes; assay type: in vitro ADME; conditions: human liver microsomes (male) 1 mg/ml, 1 mM NADPH, pH 7.4, 37° C.
Procedure: as §1

[3] = target: E. coli RNA polymerase σ70 holoenzyme (Escherichia coli, UniProt P0A8T7+P0A8V2); experiment: Fluorescence-detected inhibition of bacterial RNA polymerase; assay type: biochemical
Procedure: Fluorescence-detected RNA polymerase assays with E. coli RNA polymerase were performed by a modification of the procedure of Kuhlman et al., 2004 [Kuhlman, P., Duff, H. & Galant, A. (2004) A fluorescence-based assay for multisubunit DNA-dependent RNA polymerases. Anal. Biochem. 324, 183-190]. Reaction mixtures contained (20 μl): 0-100 nM test compound, 75 nM E. coli RNA polymerase σ^70holoenzyme, 20 nM 384 bp DNA fragment containing the bacteriophage T4 N25 promoter, 100 μM ATP, 100 μM GTP, 100 μM UTP, 100 μM CTP, 50 mM Tris-HCl, pH 8.0, 100 mM KCl, 10 mM MgCl2, 1 mM DTT, 10 μg/ml bovine serum albumin, and 5.5% glycerol. Reaction components other than DNA and NTPs were pre-incubated for 10 min at 37° C. Reactions were carried out by addition of DNA and incubation for 5 min at 37° C., followed by addition of NTPs and incubation for 60 min at 37° C. DNA was removed by addition of 1 μl 5 mM CaCl2 and 2 U DNaseI (Ambion, Inc.), followed by incubation for 90 min at 37° C. RNA was quantified by addition of 100 μl RiboGreen RNA Quantitation Reagent (Invitrogen, Inc.; 1:500 dilution in Tris-HCl, pH 8.0, 1 mM EDTA), followed by incubation for 10 min at 25° C., followed by measurement of fluorescence intensity [excitation wavelength=485 nm and emission wavelength=535 nm; QuantaMaster QM1 spectrofluorometer (PTI, Inc.)]. IC50 is defined as the concentration of inhibitor resulting in 50% inhibition of RNA polymerase activity.

[4] = In vivo pharmacokinetics in mice (intravenous administration); conditions: CD-1 mice, 2.5 mg/kg
Procedure: Test compounds (2.5 mg/kg; 0.1 ml of 0.625 mg/ml solution in 5% dimethylacetamide and 4% Cremophor EL in 100 mM sodium phosphate, pH 7.4) were administered to mice (CD-1; […]; n=3) by intravenous injection into a tail vein at t=0 h. Blood samples were collected by tail-vein bleed (CB 300 K2E tubes; Sarstedt) at t=0.02, 0.05, 1, 3, 5, and 8 h, and plasma concentrations of test compounds were determined by LC-MS/MS.

[5] = system: Mycobacterium tuberculosis H37Rv; experiment: Inhibition of growth of Mycobacterium tuberculosis (microplate Alamar Blue assay); assay type: cell-based; conditions: read-out: in vitro antibacterial activity M. tuberculosis H37Rv MIC
[6] = system: Staphylococcus aureus ATCC 12600; experiment: Inhibition of growth of Staphylococcus aureus (spiral gradient endpoint assay); assay type: cell-based; conditions: read-out: in vitro antibacterial activity S. aureus ATCC 12600 MIC
From the text: Minimum inhibitory concentrations (MICs) for Staphylococcus aureus ATCC 12600 were quantified using spiral gradient endpoint assays, essentially as described [Wallace, A. and Corkill, J. (1989) Application of the spiral plating method to study antimicrobial action. J. Microbiol. Meths. 10, 303-310; Paton, J., Holt, A., and Bywater, M. (1990) Measurement of MICs of antibacterial agents by spiral gradient endpoint compared with conventional dilution methods. Int. J. Exp. Clin. Chemother. 3, 31-38; Schalkowsky S. (1994) Measures of susceptibility from a spiral gradient of drug concentrations. Adv. Exp. Med. Biol. 349, 107-120]. Assays employed exponential-gradient plates containing 150 mm×4 mm Mueller-Hinton II cation-adjusted agar and 0.4-100 μg/ml of test compound. Plates were prepared using an Autoplate 4000 spiral plater (Spiral Biotech, Inc.). Saturated overnight cultures were swabbed radially onto plates, and plates were incubated for 16 h at 37° C. For each culture, the streak length was measured using a clear plastic template (Spiral Biotech, Inc.), the test-compound concentration at the streak endpoint was calculated using the program SGE (Spiral Biotech, Inc.), and the MIC was defined as the calculated test-compound concentration at the streak endpoint.

[7] = 75 nM E. coli RNAP holoenzyme, RiboGreen fluorescence, read-out: in vitro RNAP-inhibitory activity E. coli RNAP IC50
[8] = ATCC12600, spiral gradient endpoint assay, 16 h at 37° C.

E. coli RNA polymerase σ70 holoenzyme, sequence (P0A8V2 whole entry, the tested form may be a part): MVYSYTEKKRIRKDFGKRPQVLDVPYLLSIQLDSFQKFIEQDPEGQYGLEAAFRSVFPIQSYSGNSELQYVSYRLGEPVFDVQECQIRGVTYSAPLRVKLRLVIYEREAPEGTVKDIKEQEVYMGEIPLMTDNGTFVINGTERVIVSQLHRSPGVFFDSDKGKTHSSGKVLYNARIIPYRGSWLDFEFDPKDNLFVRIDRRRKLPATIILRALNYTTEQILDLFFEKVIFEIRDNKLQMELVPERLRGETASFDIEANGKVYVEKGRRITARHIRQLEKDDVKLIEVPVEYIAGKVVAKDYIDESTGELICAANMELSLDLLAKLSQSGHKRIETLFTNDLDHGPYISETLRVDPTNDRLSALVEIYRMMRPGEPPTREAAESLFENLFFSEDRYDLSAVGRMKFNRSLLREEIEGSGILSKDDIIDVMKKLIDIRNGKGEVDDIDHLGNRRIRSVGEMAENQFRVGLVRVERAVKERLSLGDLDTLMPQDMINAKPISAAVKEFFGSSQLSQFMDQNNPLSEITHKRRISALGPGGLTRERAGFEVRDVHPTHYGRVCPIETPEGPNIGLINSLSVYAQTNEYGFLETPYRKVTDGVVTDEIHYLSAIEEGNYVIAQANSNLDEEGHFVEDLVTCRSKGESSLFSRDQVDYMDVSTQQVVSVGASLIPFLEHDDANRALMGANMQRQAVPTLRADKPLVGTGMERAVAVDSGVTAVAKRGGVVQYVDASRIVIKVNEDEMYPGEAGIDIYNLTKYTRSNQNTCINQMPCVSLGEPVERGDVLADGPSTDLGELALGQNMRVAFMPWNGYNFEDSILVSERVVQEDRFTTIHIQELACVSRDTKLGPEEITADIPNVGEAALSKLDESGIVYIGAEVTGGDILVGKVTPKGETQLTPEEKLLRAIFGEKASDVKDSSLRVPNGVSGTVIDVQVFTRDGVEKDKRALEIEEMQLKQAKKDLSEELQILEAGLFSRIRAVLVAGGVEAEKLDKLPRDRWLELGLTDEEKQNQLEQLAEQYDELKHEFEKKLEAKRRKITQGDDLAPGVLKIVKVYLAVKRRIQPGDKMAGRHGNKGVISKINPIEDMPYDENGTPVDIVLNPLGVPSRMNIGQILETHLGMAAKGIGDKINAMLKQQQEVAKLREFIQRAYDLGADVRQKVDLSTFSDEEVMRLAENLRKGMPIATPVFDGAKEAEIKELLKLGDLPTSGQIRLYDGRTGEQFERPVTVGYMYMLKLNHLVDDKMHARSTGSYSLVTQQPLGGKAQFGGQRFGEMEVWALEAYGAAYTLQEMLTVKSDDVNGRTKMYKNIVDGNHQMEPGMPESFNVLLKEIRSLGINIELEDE
E. coli RNA polymerase σ70 holoenzyme, sequence (P0A8T7 whole entry, the tested form may be a part): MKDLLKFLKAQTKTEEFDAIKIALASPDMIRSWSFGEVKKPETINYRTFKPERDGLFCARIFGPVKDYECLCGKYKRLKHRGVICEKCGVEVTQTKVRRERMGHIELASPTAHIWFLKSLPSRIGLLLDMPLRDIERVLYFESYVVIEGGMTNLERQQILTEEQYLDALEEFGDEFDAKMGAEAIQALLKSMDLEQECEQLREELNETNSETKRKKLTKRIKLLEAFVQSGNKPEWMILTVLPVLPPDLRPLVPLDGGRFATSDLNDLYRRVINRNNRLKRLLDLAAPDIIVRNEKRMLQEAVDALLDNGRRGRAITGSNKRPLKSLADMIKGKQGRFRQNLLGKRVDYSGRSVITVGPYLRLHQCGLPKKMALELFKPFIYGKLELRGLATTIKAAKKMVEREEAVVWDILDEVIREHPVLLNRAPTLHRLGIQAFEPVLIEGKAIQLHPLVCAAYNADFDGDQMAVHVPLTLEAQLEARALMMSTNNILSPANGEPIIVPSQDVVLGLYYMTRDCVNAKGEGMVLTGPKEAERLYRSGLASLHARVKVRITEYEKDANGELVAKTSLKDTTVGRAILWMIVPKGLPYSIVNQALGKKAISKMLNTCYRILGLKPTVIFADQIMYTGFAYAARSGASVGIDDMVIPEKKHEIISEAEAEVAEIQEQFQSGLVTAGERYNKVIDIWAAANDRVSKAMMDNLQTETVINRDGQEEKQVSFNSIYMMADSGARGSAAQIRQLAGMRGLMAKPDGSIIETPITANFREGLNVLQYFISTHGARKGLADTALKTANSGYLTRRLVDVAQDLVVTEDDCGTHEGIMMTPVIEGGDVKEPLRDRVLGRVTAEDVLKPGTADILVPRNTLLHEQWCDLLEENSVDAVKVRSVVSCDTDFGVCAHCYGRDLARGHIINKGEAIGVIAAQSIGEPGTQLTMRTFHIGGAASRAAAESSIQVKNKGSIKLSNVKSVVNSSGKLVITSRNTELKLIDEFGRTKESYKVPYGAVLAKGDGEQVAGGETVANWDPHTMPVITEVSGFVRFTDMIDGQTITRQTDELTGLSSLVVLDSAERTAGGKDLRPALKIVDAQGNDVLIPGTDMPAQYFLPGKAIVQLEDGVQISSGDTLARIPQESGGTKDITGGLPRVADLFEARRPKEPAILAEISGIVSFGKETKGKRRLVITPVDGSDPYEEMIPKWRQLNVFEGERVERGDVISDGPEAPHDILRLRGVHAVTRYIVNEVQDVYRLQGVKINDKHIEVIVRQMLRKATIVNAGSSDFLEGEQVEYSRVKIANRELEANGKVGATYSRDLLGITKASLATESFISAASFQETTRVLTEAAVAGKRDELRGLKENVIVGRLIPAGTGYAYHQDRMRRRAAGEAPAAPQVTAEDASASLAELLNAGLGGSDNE
E. coli RNA polymerase σ70 holoenzyme, sequence (P0A7Z4 whole entry partner, the tested form may be a part): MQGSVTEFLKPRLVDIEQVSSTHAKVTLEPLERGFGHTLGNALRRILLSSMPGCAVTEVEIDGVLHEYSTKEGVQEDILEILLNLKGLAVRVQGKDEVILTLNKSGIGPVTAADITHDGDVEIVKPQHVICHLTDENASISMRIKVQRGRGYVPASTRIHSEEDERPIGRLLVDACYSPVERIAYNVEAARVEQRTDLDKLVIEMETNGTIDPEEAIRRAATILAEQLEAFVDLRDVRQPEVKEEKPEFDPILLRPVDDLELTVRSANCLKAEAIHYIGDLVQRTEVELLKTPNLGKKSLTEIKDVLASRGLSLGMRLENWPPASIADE
E. coli RNA polymerase σ70 holoenzyme, sequence (P0A800 2-91 partner limits assumed): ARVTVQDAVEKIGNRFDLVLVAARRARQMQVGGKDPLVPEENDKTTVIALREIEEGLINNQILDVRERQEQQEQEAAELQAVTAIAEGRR
E. coli RNA polymerase σ70 holoenzyme, sequence (P00579 whole entry partner, the tested form may be a part): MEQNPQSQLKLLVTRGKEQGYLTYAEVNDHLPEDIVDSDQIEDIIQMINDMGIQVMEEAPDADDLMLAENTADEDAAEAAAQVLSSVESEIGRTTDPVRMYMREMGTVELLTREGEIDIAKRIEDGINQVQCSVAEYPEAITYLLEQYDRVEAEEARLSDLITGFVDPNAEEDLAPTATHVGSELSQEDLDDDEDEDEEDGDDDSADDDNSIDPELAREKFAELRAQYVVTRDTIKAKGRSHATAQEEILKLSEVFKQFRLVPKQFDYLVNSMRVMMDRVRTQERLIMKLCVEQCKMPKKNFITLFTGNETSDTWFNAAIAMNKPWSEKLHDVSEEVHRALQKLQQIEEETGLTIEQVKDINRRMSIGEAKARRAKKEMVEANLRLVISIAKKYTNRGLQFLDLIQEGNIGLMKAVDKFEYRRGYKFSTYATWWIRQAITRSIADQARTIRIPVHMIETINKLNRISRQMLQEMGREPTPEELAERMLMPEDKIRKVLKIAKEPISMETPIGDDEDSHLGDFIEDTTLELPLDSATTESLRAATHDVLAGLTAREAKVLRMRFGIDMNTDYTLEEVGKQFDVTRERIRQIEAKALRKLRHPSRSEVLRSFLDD

SMILES	mouse liver microsome t0.5 [1]	human liver microsome t0.5 [2]	pIC50 [3, 7]	plasma t0.5 [4]	MIC [5]	MIC [6, 8]	pIC50 [3]	MIC ([6]; ATCC12600, 16 h)
CCCC/C(C)=C/C=C(\C)C(=O)c1c(O)cc(C(C)CC/C=C/NC(=O)OC)oc1=O (racemic) [Example 10, (±)Myxopyronin B, reference compound]	21 min	1.7 min	7.89					
COC(=O)N/C=C/CCC(C)c1cc(O)c(C(=O)/C(C)=C/c2sc(Oc3ccc(F)cc3)nc2C)c(=O)o1 (centres unmarked) [Example 1]	21 min	8.3 min	8.25	2.7 h	3.12 µg/mL (≈ 5.76 µM)	0.35 µg/mL (≈ 0.645 µM)		
COC(=O)N/C=C/CCC(C)c1cc(O)c(C(=O)/C(C)=C/c2cnc(Oc3ccc(F)cc3)s2)c(=O)o1 (centres unmarked) [Example 2]	60 min	14 min	8.02	2.8 h	3.12 µg/mL (≈ 5.91 µM)	0.5 µg/mL (≈ 0.946 µM)		
COC(=O)N/C=C/CCCc1cc(O)c(C(=O)/C(C)=C/c2sc(Oc3ccc(F)cc3)nc2C)c(=O)o1 [Example 3]	110 min	5.6 min	8.35	2.5 h	1.56 µg/mL (≈ 2.95 µM)	0.17 µg/mL (≈ 0.322 µM)		
[2H]C([2H])([2H])OC(=O)N/C=C/CCC(C)c1cc(O)c(C(=O)/C(C)=C/c2sc(Oc3ccc(F)cc3)nc2C)c(=O)o1 (centres unmarked) [Example 4]	59 min	16 min	8.17	2.7 h		0.24 µg/mL (≈ 0.44 µM)		
[2H]C([2H])([2H])OC(=O)N/C=C/CCC(C)c1cc(O)c(C(=O)/C(C)=C/c2cnc(Oc3ccc(F)cc3)s2)c(=O)o1 (centres unmarked) [Example 5]	>120 min	21 min	8.28	3.0 h	1.56 µg/mL (≈ 2.93 µM)	0.3 µg/mL (≈ 0.564 µM)		
COC(=O)N/C=C/CCCc1cc(O)c(C(=O)/C(C)=C/c2cnc(Oc3ccc(F)cc3)s2)c(=O)o1 [Example 6]	>120 min	8.6 min	8.08	2.4 h	0.78 µg/mL (≈ 1.52 µM)	0.73 µg/mL (≈ 1.42 µM)		
[2H]C([2H])([2H])OC(=O)N/C=C/CCCc1cc(O)c(C(=O)/C(C)=C/c2sc(Oc3ccc(F)cc3)nc2C)c(=O)o1 [Example 7]	>120 min	8.3 min	8.70	2.6 h	0.78 µg/mL (≈ 1.47 µM)	0.19 µg/mL (≈ 0.357 µM)		
[2H]C([2H])([2H])OC(=O)N/C=C/CCCc1cc(O)c(C(=O)/C(C)=C/c2cnc(Oc3ccc(F)cc3)s2)c(=O)o1 [Example 8]	>120 min	21 min	8.52	2.7 h	0.78 µg/mL (≈ 1.51 µM)	0.25 µg/mL (≈ 0.483 µM)		
[2H]C([2H])([2H])OC(=O)N/C=C/CCCc1cc([O-])c(C(=O)/C(C)=C/c2cnc(Oc3ccc(F)cc3)s2)c(=O)o1.[Na+] [Example 9]	>120 min	29 min		3.9 h	0.39 µg/mL		8.52	0.41 µg/mL
COC(=O)N/C=C/CCC(C)c1cc(O)c(C(=O)/C(C)=C/C=C(\C)CCC(F)(F)F)c(=O)o1 (centres unmarked) [Example 11, reference compound]	100 min	25 min	7.92					
[2H]C([2H])([2H])OC(=O)N/C=C/CCC(C)c1cc(O)c(C(=O)/C(C)=C/C=C(\C)CCCC)c(=O)o1 (centres unmarked) [Example 12]	66 min	4.2 min						
[2H]C([2H])([2H])OC(=O)N/C=C/CCC(C)c1cc(O)c(C(=O)/C(C)=C/C=C(\C)CCC(F)(F)F)c(=O)o1 (centres unmarked) [Example 13]	>120 min	33 min	7.64					
[2H]C([2H])([2H])OC(=O)N/C=C/CCCc1cc([O-])c(C(=O)/C(C)=C/c2cnc(Oc3ccc(F)c(Cl)c3)s2)c(=O)o1.[Na+] [Example 15]					0.78 µg/mL		8.54	0.17 µg/mL
[2H]C([2H])([2H])OC(=O)N/C=C/CCCc1cc(O)c(C(=O)/C(C)=C/c2cnc(Oc3ccc(-c4ccccc4)cc3)s2)c(=O)o1 [Example 16]	46 min	44 min	7.74		> 50 µg/mL	> 8 µg/mL		
[2H]C([2H])([2H])OC(=O)N/C=C/CCCc1cc([O-])c(C(=O)/C(C)=C/c2cnc(Oc3ccc(-c4ccccc4)cc3)s2)c(=O)o1.[Na+] [Example 17]					> 50 µg/mL		7.31	
[2H]C([2H])([2H])OC(=O)N/C=C/CCCc1cc(O)c(C(=O)/C(C)=C/c2cnc(Oc3ccc(F)c(Br)c3)s2)c(=O)o1 [Example 18]			8.80		0.78 µg/mL (≈ 1.31 µM)	0.35 µg/mL (≈ 0.587 µM)		
[2H]C([2H])([2H])OC(=O)N/C=C/CCCc1cc(O)c(C(=O)/C(C)=C/c2cnc(Oc3ccc(F)c(-c4ccccc4)c3)s2)c(=O)o1 [Example 19]			8.92		25 µg/mL (≈ 42.1 µM)	0.93 µg/mL (≈ 1.57 µM)		
[2H]C([2H])([2H])OC(=O)N/C=C/CCCc1cc(O)c(C(=O)/C(C)=C/c2cnc(Oc3ccc(F)c(F)c3)s2)c(=O)o1 [Example 20]			8.52		0.78 µg/mL (≈ 1.46 µM)	0.26 µg/mL (≈ 0.485 µM)		
